We go through eleven compounds from ChEMBL document CHEMBL1128879, “Design, synthesis, and structure-activity relationships of 2-substituted-2-amino-1,3-propanediols: Discovery of a novel immunosuppressant, FTY720” (Bioorg Med Chem Lett, 1995).

The structures appear in SMILES notation. pIC50: −log10 of the molar value.

Series [1] has as its system Rattus norvegicus. As to the kind of experiment: Compound was evaluated in vivo for the immunosuppressive activity following intravenous (iv) administration at a dose of 3 mg/Kg. Format: functional.
Series [2] deals with Rattus norvegicus. As to the kind of experiment: Compound was evaluated in vivo for the immunosuppressive activity following peroral (po) administration at a dose of 0.1 mg/Kg. It is filed as functional.
Series [3] concerns Rattus norvegicus. In words: Compound was evaluated in vivo for the immunosuppressive activity following intraperitoneal (ip) administration at a dose of 3 mg/kg. Format: functional.
The test system of series [4] is Rattus norvegicus. In words: Compound was evaluated in vivo for the immunosuppressive activity following intraperitoneal (ip) administration at a dose of 1 mg/Kg. Format: functional.
In series [5] the test system is Rattus norvegicus. In words: Compound was evaluated in vivo for the immunosuppressive activity following intraperitoneal (ip) administration at a dose of 0.3 mg/Kg. Format: functional.
Series [6] has as its system Rattus norvegicus. As to the kind of experiment: Compound was evaluated in vivo for the immunosuppressive activity following peroral (po) administration at a dose of 30 mg/Kg. It is filed as functional.
The test system of series [7] is Rattus norvegicus. As to the kind of experiment: Compound was evaluated in vivo for the immunosuppressive activity following intraperitoneal (ip) administration at a dose of 0.1 mg/Kg. Format: functional.
The test system of series [8] is Rattus norvegicus. In words: Compound was evaluated in vivo for the immunosuppressive activity following peroral (po) administration at a dose of 3 mg/Kg. It is filed as functional.
In series [9] the test system is Rattus norvegicus. As to the kind of experiment: Compound was evaluated in vivo in rat skin allograft by intravenous (iv) administration; not toxic. It is filed as functional.
The subject of series [10] is Rattus norvegicus. In words: Compound was evaluated in vivo for the immunosuppressive activity following intravenous (iv) administration at a dose of 0.1 mg/kg. Format: functional.
In series [11] the test system is Rattus norvegicus. In words: Compound was evaluated in vivo for the immunosuppressive activity following intravenous (iv) administration at a dose of 10 mg/Kg. It is filed as functional.
The test system of series [12] is Rattus norvegicus. In words: (§1) Compound was evaluated in vivo in rat skin allograft by intravenous (iv) administration; toxic. Format: functional.
Series [13] deals with Rattus norvegicus. As to the kind of experiment: Compound was evaluated in vivo for the immunosuppressive activity following intraperitoneal (ip) administration at a dose of 3 mg/Kg. Format: functional.
Series [14] is filed under the species Mus musculus. In words: In vitro ability to inhibit mouse allogenic mixed leukocyte response (MLR). Format: functional.
Series [15] has as its system Rattus norvegicus. The description is as §1. It is filed as organism-based.

With `CCCCCCCCc1ccc(CCC(N)(CO)CO)cc1` [FINGOLIMOD], the MST in [1] came out at 46.3 days; in [2] it was 19.3 days; in series [3], 60 days; in series [4], 45 days; in series [5], 36 days; in [6], 57.8 days. The MST came to 32 days in series [7], 41 days in series [8], 24.8 days in series [10] and 53.5 days in series [11]. In addition, the Dose in series [9] amounted to 10 mg/kg.
As for `CCCCCCCCCCCCCCC(N)(CO)CO`, the MST came out at 40 days in series [4], 28 days in [5], 45 days in [13] and 12 days in series [7]. The same compound registered a Dose in series [12] of 10 mg/kg.
Compound `CCCCCCc1ccc(CCCCC(N)(CO)CO)cc1` had a negative-log IC50 (pIC50) in [14] of 7.72.
With `CCCCCCCc1ccc(CCCC(N)(CO)CO)cc1`, in series [14], the pIC50 is 6.46.
Still for that read-out and setting: the figure for `CCCCCCCCCc1ccc(CC(N)(CO)CO)cc1` is 7.15; for `CCCCc1ccc(CCCCCCC(N)(CO)CO)cc1` it is 7.00; for `CCCCCCCCCc1ccc(CCC(N)(CO)CO)cc1` it is 8.07.
On the same count and under the same terms, the figure for `NC(CO)(CO)CCCCCCCCCCc1ccccc1` is 7.27.
`CCCCCCCCCCCCCCCC(N)(CO)CO` showed a Dose in series [15] of 3 mg/kg.
The compound `CCCCCCCCCCc1ccc(C(N)(CO)CO)cc1` showed a negative logarithm of the IC50 (pIC50) in series [14] of 7.89.
On the same count and under the same terms, the figure for `CCc1ccc(CCCCCCCCC(N)(CO)CO)cc1` is 7.49.

Usually pIC50 stands for −log10 of the IC50, conventionally taken in molar units. Read a low pIC50 as a large IC50.
